Test results as given in patent US8153596B2, “Use of SH2 STAT3/STAT1 peptidomimetics as anticancer drugs” (University of South Florida, priority 2006, dated 2012).
Values joined by “and” are separate entries in the source; they are usually repeats but may differ in a detail not shown here. Identical values can stand only once. Like-named read-outs stand apart in the source and are kept apart here.

Tests used:
STAT3:STAT3 = target: T1, STAT3:STAT3 (Homo sapiens, UniProt P40763); assay: EMSA of STAT3:STAT3 dimer DNA binding, nuclear extracts preincubated with peptidomimetic, radiolabeled hSIE probe; assay type: biochemical
T1 construct: Nuclear extracts containing active STAT1 and STAT3 were preincubated with or without peptidomimetics; endogenous in cells; host or cells: nuclear extracts
Protocol: (§1) Evaluation was carried out through pre-incubation of specific concentrations of peptidomimetics with nuclear extracts containing STAT1 and STAT3 for 30 minutes at room temperature before incubation with radiolabeled hSIE oligonucleotide probes and ESMA analysis. Standard peptide synthetic procedures using HBTU and DIPEA were employed to furnish the library of functionalized inhibitors.
as §1

STAT1:STAT1 = target: T2, STAT1:STAT1 (Homo sapiens, UniProt P42224); assay: EMSA of STAT1:STAT1 dimer DNA binding, nuclear extracts preincubated with peptidomimetic, radiolabeled hSIE probe; assay type: biochemical
T2 construct: Nuclear extracts containing active STAT1 and STAT3 were preincubated with or without peptidomimetics; endogenous in cells; host or cells: nuclear extracts
T2 sequence (P42224 2-750 limits assumed): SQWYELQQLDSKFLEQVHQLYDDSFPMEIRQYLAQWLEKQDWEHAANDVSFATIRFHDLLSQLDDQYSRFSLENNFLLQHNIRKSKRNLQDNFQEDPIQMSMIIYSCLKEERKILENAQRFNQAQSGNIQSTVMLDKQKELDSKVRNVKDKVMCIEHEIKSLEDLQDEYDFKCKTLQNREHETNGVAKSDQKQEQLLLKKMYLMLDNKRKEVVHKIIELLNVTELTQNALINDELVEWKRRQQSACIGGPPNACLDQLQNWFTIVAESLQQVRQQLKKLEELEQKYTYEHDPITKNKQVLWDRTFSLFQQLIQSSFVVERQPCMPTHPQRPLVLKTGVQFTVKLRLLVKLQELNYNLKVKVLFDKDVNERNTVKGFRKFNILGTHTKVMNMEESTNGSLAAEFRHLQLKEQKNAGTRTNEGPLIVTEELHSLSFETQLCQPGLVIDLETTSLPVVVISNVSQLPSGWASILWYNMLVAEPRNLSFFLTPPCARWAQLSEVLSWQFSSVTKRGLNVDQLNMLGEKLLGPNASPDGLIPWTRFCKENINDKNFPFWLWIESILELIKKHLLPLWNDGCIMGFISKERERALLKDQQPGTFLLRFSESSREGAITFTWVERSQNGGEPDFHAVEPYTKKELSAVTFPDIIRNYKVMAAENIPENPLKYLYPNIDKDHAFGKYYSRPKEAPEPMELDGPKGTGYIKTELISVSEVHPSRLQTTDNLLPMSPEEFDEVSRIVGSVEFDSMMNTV
Protocol: as §1, §1

[1] = test system: v-Src transformed fibroblasts; conditions: constitutively active STAT3-dependant v-Src transformed fibroblasts; cited from earlier work

T1 sequence (P40763 2-770 limits assumed, species assumed): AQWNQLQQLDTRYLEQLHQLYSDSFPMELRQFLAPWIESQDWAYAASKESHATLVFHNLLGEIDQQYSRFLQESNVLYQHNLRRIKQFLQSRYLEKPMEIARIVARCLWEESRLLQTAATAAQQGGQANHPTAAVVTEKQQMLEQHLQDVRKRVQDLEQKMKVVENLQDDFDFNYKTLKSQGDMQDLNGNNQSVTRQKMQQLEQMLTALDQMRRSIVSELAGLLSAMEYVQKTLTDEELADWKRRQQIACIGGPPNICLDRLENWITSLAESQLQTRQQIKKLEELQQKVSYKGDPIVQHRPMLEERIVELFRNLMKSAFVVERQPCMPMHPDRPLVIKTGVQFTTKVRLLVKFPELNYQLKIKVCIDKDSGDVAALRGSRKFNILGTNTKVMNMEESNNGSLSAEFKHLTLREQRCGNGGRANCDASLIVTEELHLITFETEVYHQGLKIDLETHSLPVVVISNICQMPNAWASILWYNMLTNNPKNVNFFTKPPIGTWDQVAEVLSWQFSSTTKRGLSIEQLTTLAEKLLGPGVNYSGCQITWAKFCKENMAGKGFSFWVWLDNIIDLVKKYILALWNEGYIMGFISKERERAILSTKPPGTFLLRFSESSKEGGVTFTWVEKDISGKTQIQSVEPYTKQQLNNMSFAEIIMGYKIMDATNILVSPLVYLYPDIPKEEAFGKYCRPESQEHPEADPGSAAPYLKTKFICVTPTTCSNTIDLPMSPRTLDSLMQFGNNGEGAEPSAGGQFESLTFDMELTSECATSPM

SMILES	IC50 (STAT3:STAT3)	IC50 (STAT1:STAT1)	IC50 (STAT3:STAT3; nuclear extracts preincubated 30 min at room temperature, hSIE probe, EMSA, means of three experiments, read-out: STAT3:STAT3 IC50 values)	IC50 (STAT1:STAT1; nuclear extracts preincubated 30 min at room temperature, hSIE probe, EMSA, means of three experiments, read-out: STAT1:STAT1 IC50 values)	cell growth suppression [1]
CC(C)CC(NC(=O)C(Cc1ccc(OP(=O)(O)O)cc1)NC(=O)c1ccc(C#N)cc1)C(=O)NC1CCCCC1 (stereo not shown) [ISS836]	605 µM	25 µM	–	–	–
COc1cccc(NC(=O)[C@H](CC(C)C)NC(=O)[C@H](Cc2ccc(OP(=O)(O)O)cc2)NC(=O)c2ccc(C#N)cc2)c1 [ISS840]	–	–	560 µM	1.4 µM and 1 µM	–
CC(C)CC(NC(=O)C(Cc1ccc(OP(=O)(O)O)cc1)NC(=O)c1ccc(C#N)cc1)C(=O)O (stereo not shown) [ISS610]	–	–	–	–	suppress cell growth significantly
CC(C)CC(NC(=O)C(Cc1ccc(OP(=O)(O)O)cc1)NC(=O)c1ccc(C#N)cc1)C(=O)NC(C)C (stereo not shown) [ISS834]	760 µM	21 µM	–	–	–
